Test results from patent US20110015162A1, “15,16-Methylene-17-hydroxy-19-nor-21-carboxylic acid-steroid Y-lactone derivative, use thereof and medicinal products containing the derivative” (Bayer Schering Pharma Aktiengesellschaft, priority 2007, published 2011).
Like-named read-outs stand apart in the source and are kept apart here.

Columns and labels:
[1] = biological target: T1, fusion protein from the PR-ligand-binding domain and a Gal4-transactivation domain (Homo sapiens, UniProt P06401); assay: Progestational action by transactivation test (CHO K1 reporter cells); assay type: cell-based; settings: for Emax: read-out: Progesterone receptor Agonism efficacy
T1 construct: expressed in transfected cells; host or cells: CHO K1 cells, stably transfected
Protocol: 4. Determination of Progestational Action by Means of Transactivation Tests:
The culture medium used for culture of the cells used for the assay was DMEM (Dulbecco's Modified Eagle Medium: […] glucose; PAA, #E15-009) with 10% FCS (Biochrom, S0115, batch #615B), 4 mM L-glutamine, 1% penicillin/streptomycin, 1 mg/ml G418 and 0.5 μg/ml puromycin.
Reporter cell lines (CHO K1 cells stably transfected with a fusion protein from the PR-ligand-binding domain and a Gal4-transactivation domain and a reporter construct, which contained luciferase under the control of a Gal4-responsive promoter) were seeded at a density of 4×10^4 cells per well in white, opaque tissue culture plates each with 96 wells (PerkinElmer, #P12-106-017) and kept in culture medium with 3% DCC-FCS (serum treated with activated charcoal to remove interfering components contained in the serum). The test compounds were added eight hours later, and the cells were incubated with the compounds for 16 hours. The tests were carried out in triplicate. At the end of incubation the medium containing the effector was removed and replaced with lysis buffer. After luciferase assay substrate (Promega, #E1501) had been added, the 96-well plates were then put in a microplate luminometer (Pherastar, BMG Labtech), and the luminescence was measured. The IC50 values were evaluated using software for calculating dose-effect relations.

androgen receptor [2] = biological target: T2, androgen receptor (Homo sapiens, UniProt P10275); assay: Androgen receptor binding test; set-up: expressed in transfected cells
T2 sequence (P10275 1-920): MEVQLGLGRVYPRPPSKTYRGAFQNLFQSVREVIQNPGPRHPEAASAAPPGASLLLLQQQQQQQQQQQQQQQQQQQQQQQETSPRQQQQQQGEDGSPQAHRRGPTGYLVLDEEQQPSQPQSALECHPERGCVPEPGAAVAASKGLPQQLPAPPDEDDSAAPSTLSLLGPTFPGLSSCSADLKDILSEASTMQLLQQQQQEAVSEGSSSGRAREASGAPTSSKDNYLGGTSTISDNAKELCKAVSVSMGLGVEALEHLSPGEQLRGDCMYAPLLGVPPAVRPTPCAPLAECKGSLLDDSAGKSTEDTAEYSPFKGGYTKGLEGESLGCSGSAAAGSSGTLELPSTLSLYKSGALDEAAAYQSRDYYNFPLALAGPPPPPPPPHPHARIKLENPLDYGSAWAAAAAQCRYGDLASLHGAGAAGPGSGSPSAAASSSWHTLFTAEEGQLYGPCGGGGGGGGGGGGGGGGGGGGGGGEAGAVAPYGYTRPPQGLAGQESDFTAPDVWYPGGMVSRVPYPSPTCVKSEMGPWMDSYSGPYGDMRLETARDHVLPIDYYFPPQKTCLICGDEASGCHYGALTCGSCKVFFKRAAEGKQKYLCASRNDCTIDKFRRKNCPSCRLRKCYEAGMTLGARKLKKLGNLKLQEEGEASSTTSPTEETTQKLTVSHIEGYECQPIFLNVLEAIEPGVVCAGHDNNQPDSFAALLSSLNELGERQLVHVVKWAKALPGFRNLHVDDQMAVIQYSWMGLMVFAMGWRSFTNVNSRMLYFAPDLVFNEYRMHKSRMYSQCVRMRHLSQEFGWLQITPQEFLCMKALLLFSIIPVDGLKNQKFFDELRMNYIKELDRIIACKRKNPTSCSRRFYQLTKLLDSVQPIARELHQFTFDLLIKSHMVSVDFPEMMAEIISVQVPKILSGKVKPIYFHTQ
Protocol: Using cytosol from progesterone receptor-expressing insect cells (Hi5), competitive binding to the progesterone receptor was determined from the ability to displace ^3H-progesterone as reference substance from the receptor.
3. Androgen Receptor Binding Test: […]

androgen receptor [3] = biological target: T2, androgen receptor; assay: Androgenic/antiandrogenic action by transactivation test (PC3 reporter cells); assay type: cell-based; set-up: expressed in transfected cells; host or cells: PC3 cells
Protocol: The test compounds were added eight hours later, and the cells were incubated with the compounds for 16 hours. The tests were carried out in triplicate. At the end of incubation the medium containing the effector was removed and replaced with lysis buffer. After luciferase assay substrate (Promega, #E1501) had been added, the 96-well plates were then put in a microplate luminometer (Pherastar, BMG Labtech), and the luminescence was measured. The IC50 values were evaluated using software for calculating dose-effect relations.
6. Determination of Androgenic/Antiandrogenic Action by Means of Transactivation Tests:
The androgenic/antiandrogenic action of the test substances was determined as for the transactivation tests described above.
The following modifications were made: In this case reporter cell lines were used (PC3 cells) that express the androgen receptor, and a reporter construct that contains luciferase under the control of a steroid hormone-responsive promoter.
For determination of the antiandrogenic efficacy, 0.05 nM R1881 was added to the cells, in order to achieve almost maximum stimulation of the reporter gene.

[4] = CHO K1 reporter cells, 16 hours incubation, read-out: Progesterone receptor Agonism EC50
[5] = CHO K1 reporter cells, 16 hours incubation
[6] = reference substance 3H-testosterone, cytosol from AR-expressing insect cells (Hi5), read-out: Androgen receptor IC50
[7] = PC-3, read-out: Androgen receptor Agonism efficacy
[8] = PC-3, read-out: Androgen receptor Antagonism efficacy

T1 sequence (P06401 679-913 limits assumed): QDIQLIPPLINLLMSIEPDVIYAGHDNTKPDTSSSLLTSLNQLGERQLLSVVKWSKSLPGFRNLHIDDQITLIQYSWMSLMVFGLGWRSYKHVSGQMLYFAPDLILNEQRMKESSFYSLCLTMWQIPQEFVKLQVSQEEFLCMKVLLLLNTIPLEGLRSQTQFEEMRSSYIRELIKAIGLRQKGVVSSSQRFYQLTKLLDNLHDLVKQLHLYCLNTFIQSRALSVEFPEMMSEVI
T1 sequence (P04386 1-147 partner limits assumed): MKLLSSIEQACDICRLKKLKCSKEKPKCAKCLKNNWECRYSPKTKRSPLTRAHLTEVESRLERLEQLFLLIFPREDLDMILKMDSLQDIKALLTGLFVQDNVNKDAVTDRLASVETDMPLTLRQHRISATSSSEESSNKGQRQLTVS

Compound | EC50 [1, 4] [nM] | Emax [1, 5] [%] | IC50 (androgen receptor [2]; [6]) [nM] | EC50 (androgen receptor [3]) [nM] | IC50 (androgen receptor [3]) [nM] | Emax (androgen receptor [3]; [7]) [%] | Emax (androgen receptor [3]; [8]) [%] | EC50 [1] [nM] | Emax ([1]; CHO-K1, 16 h) [%] | IC50 (androgen receptor [2]) [nM]
C[C@]12CC[C@H]3[C@@H](C=CC4=CC(=O)CC[C@@H]43)[C@@H]1[C@H]1C[C@H]1[C@@]21C=CC(=O)O1 [Example 13, 17β-Hydroxy-15α,16α-methylene-19-nor-17α-pregna-4,6,20(Z)-trien-3-one-21-carboxylic acid γ-lactone] | 150 | 37.1 | 5100 | 120 | 100 | 14.4 | 47.4 |  |  | 
C[C@@H]1CC2=CC(=O)CC[C@@H]2[C@H]2CC[C@@]3(C)[C@@H]([C@H]4C[C@H]4[C@@]34C=CC(=O)O4)[C@@H]21 [Example 14A, 17β-Hydroxy-7α-methyl-15α,16α-methylene-19-nor-17α-pregna-4,20(Z)-dien-3-one-21-carboxylic acid γ-lactone] |  |  |  | 13 | 1.5 | 41.8 | 21 | 16 | 86.3 | 74
CC[C@@H]1CC2=CC(=O)CC[C@@H]2[C@H]2CC[C@@]3(C)[C@@H]([C@H]4C[C@H]4[C@@]34C=CC(=O)O4)[C@H]12 [Example 15A, 17β-Hydroxy-7α-ethyl-15α,16α-methylene-19-nor-17α-pregna-4,20(Z)-dien-3-one-21-carboxylic acid γ-lactone] |  |  |  | 11 |  | 49.4 | 5 | 92 | 39.5 | 60
C=C[C@@H]1CC2=CC(=O)CC[C@@H]2[C@H]2CC[C@@]3(C)[C@@H]([C@H]4C[C@H]4[C@@]34C=CC(=O)O4)[C@@H]21 [Example 16A, 17β-Hydroxy-7α-vinyl-15α,16α-methylene-19-nor-17α-pregna-4;20(Z)-dien-3-one-21-carboxylic acid γ-lactone] |  |  |  | 12 |  | 62.6 | 5 | 140 | 59.3 | 39
C[C@]12CC[C@H]3[C@H]([C@@H]1[C@H]1C[C@H]1[C@@]21C=CC(=O)O1)[C@H](C1CC1)CC1=CC(=O)CC[C@@H]13 [Example 17A, 17β-Hydroxy-7α-cyclopropyl-15α,16α-methylene-19-nor-17α-pregna-4,20(Z)-dien-3-one-21-carboxylic acid γ-lactone] |  |  |  | 23 | 11 | 40.8 | 33.7 | 970 | 71.8 | 77
C[C@]12CC[C@H]3[C@@H](CCC4=C(Cl)C(=O)CC[C@@H]43)[C@@H]1[C@H]1C[C@H]1[C@@]21C=CC(=O)O1 [Example 18, 4-Chloro-17β-hydroxy-15α,16α-methylene-19-nor-17α-pregna-4,20(Z)-dien-3-one-21-carboxylic acid γ-lactone] |  |  |  | 12 |  | 71.5 | 5 | 810 | 25.7 | 140
C[C@]12CC[C@H]3[C@@H](C[C@@H](CO)C4=CC(=O)CC[C@@H]43)[C@@H]1[C@@H]1C[C@@H]1[C@@]21C=CC(=O)O1 [Example 21, 17β-Hydroxy-6β-hydroxymethylene-15β,16β-methylene-19-nor-17α-pregna-4,20(Z)-dien-3-one-21-carboxylic acid γ-lactone] | 780 | 21 | 1000 |  | 500 | 5 | 15.7 |  |  | 
C[C@@H]1CC2=CC(=O)CC[C@@H]2[C@H]2CC[C@@]3(C)[C@@H]([C@@H]4C[C@@H]4[C@@]34C=CC(=O)O4)[C@@H]21 [Example 23A, 17β-Hydroxy-7α-methyl-15β,16β-methylene-19-nor-17α-pregna-4,20(2)-dien-3-one-21-carboxylic acid γ-lactone] |  |  |  | 19 |  | 63.6 | 5 | 21 | 140 | 81
CC[C@@H]1CC2=CC(=O)CC[C@@H]2[C@H]2CC[C@@]3(C)[C@@H]([C@@H]4C[C@@H]4[C@@]34C=CC(=O)O4)[C@H]12 [Example 24A, 7α-Ethyl-17β-hydroxy-15β,16β-methylene-19-nor-17α-pregna-4,20(Z)-dien-3-one-21-carboxylic acid γ-lactone] |  |  |  | 52 | 11 | 36.8 | 22.5 | 140 | 42.7 | 160
C=C[C@@H]1CC2=CC(=O)CC[C@@H]2[C@H]2CC[C@@]3(C)[C@@H]([C@@H]4C[C@@H]4[C@@]34C=CC(=O)O4)[C@@H]21 [Example 25A, 17β-Hydroxy-15β,16β-methylene-7α-vinyl-19-nor-17α-pregna-4,20(Z)-dien-3-one-21-carboxylic acid γ-lactone] |  |  |  | 1.83 |  | 73.3 | 5 | 560 | 46.5 | 37
C[C@]12CC[C@H]3[C@@H](CCC4=C(Cl)C(=O)CC[C@@H]43)[C@@H]1[C@@H]1C[C@@H]1[C@@]21C=CC(=O)O1 [Example 27, 4-Chloro-17β-hydroxy-15β,16β-methylene-19-nor-17α-pregna-4,20(Z)-dien-3-one-21-carboxylic acid γ-lactone] |  |  |  | 69.5 |  | 66.9 | 5 | 330 | 49.6 | 810
